Results: patent US20260283946A1, “PHARMACEUTICAL DRY POWDER COMPOSITION AND METHODS FOR TREATING RESPIRATORY TRACT INFECTIONS” (priority 2022, published 2026)

Test system: Vero cells
Test: Luciferase assay of total cellular ATP
Assay type: cell-based, African green monkey
Conditions: 5 μM ouabain, 0.4, 0.8 and 1.1% BREATHOX POWDER, 1 h
Method: Then to see the available ATP a luciferase assay was performed. Changes of the total concentration of ATP in Vero cells exposed to increasing concentrations of NaCl for 1 or 72 h was determined by plate microfluorimetry recordings with the FlexStation III microplate reader and the ATP Assay Kit (SIGMA-ALDRICH) following the manufacturer's instructions. The kit provides extremely sensitive results, detecting ATP release of 10-100 mammalian cells/well, based on the firefly luciferase-catalyzed oxidation of D-luciferin in the presence of ATP, which the amount of ATP is quantified by the amount of light (hv) produced. Recordings of the luminescence intensity of 5×10^4 cells in black clear bottom of 96 wells plates were acquired at rest (point 0 h), 1 h, 24 h and 72 h after NaCl challenge (depolarizing agent).
In order to test whether the reduced level of ATP was caused by the increased activity of Na+/K+ ATPase transporter, Vero cells were treated with 0.4, 0.8 and 1.1% of BREATHOX® POWDER in presence or absence of 5 μM ouabain (Na+/K+ ATPase transporter inhibitor). Changes in total ATP concentration in Vero cells exposed to increasing concentrations of BREATHOX® POWDER with or without 5 μM ouabain for 1 hour was determined by plate microfluorimetry recordings with the FlexStation III microplate reader and the ATP Assay Kit (SIGMA-Aldrich) following the manufacturer's instructions. […]

C[C@@H]1O[C@@H](O[C@H]2C[C@@H](O)[C@]3(CO)[C@H]4[C@H](O)C[C@]5(C)[C@@H](C6=CC(=O)OC6)CC[C@]5(O)[C@@H]4CC[C@]3(O)C2)[C@H](O)[C@H](O)[C@H]1O [ouabain]
decrease in ATP level caused by BREATHOX POWDER: significantly reversed
